Results from patent US20060024661A1, “Modulation of CRF potentiation of NMDA receptor currents via CRF receptor 2” (The Regents of the University of California, priority 2003, published 2006).
“Also recorded” adds a separate entry of the source. Where no end group is shown, it is not given here.

Tests used:
[1] = tested on: NMDAR-mediated EPSCs in VTA dopamine neurons; test: NMDAR-mediated EPSCs, whole-cell voltage-clamp in VTA slices; type: cell-based, mice; details: for potentiation of NMDAR-mediated EPSCs: +40 mV
Protocol: VTA slices from 21-29 day old C57 mice (Charles River) were prepared as previously described (Ungless et al. (2001). Nature 411: 584-587). Briefly, mice were anesthetized with halothane and then decapitated. A block of tissue containing midbrain was sliced in the horizontal plane (230 μm) in ice-cold low Ca^2+ solution (containing in mM: 126 NaCl, 1.6 KCl, 1.2 NaH2PO4, 1.2 MgCl2, 0.625 CaCl2, 18 NaHCO3 and 11 glucose). Slices were transferred to a holding chamber containing artificial cerebrospinal fluid (ACSF, in mM: 126 NaCl, 1.6 KCl, 1.2 NaH2PO4, 1.2 MgCl2, 2.5 CaCl2, 18 NaHCO3 and 11 glucose) and equilibrated at 31-34° C. for at least 1 h. Picrotoxin (100 μM) was added to the ACSF for recording, to block GABAA receptor-mediated inhibitory postsynaptic potentials. All solutions were aerated with 95% O2/5% CO2, and perfused over the slice at a rate of 2.5 ml/min. Cells were visualized with an upright microscope using infrared differential interference contrast (IR-DIC) illumination and whole-cell voltage-clamp recordings were made with an Axopatch 1D amplifier (Axon Instruments). Electrodes (2-4 MΩ) contained in mM: 117 cesium methansulfonic acid, 20 HEPES, 0.4 EGTA, 2.8 NaCl, 5 TEA-Cl, 2.5 MgATP, 0.25 MgGTP, pH 7.2-7.4, 275-285 mOsm. Dopamine cells were identified by the presence of an Ih current. A bipolar stimulating electrode was placed 100-300 μm rostral to the recording electrode and was used to stimulate excitatory afferents at 0.1 Hz. Neurons were voltage-clamped at +40 mV. Coronal hippocampal slices were also prepared and maintained in a similar manner. Extracellular field potentials were recorded in the CA1 region and evoked by stimulating the stratum radiatum. All drugs were obtained from Sigma, except human/rat CRF (Tocris), Antisauvagine-30 (PolyPeptide) and CP-154,526 (a generous gift from Pfizer). CRF fragment (6-33), ovine CRF, Antisauvagine-30, CP-154,526, U-73122 and Urocortin were first dissolved in DMSO (final concentration 0.1%). EPSCs were filtered at 2 kHz, digitized at 5-10 kHz and stored using Igor Pro software (Wavemetrics). AMPAR-mediated EPSCs were recorded at −70 mV; NMDAR-mediated EPSCs were recorded at +40 mV and measured 20 msec after the stimulation artifact when the EPSC is primarily NMDAR-mediated (11,13). Statistical significance was assessed using ANOVA on 5 min bins of EPSCs, and post hoc Fisher's LSD where appropriate.
We measured excitatory postsynaptic currents (EPSCs) recorded in putative dopamine neurons in midbrain slices from mice. EPSCs were evoked while holding neurons in voltage-clamp at +40 mV; measurements were taken at a time point when the EPSC is purely NMDA-receptor-mediated (see Methods) (Bonci and Malenka (1999). J Neurosci. 19: 3723-3730; Ungless et al. (2001). Nature 411: 584-587). […] To facilitate our subsequent investigation of the effects of CRF, we therefore sought to identify a characteristic that might help us determine, a priori, to which group a particular neuron belongs. […] We noticed that, typically, neurons that responded to CRF had large Ih currents (FIG. 1B). […] Henceforth, all subsequent experiments were conducted on cells with an Ih greater than 100 pA.

[2] = tested on: field potentials in hippocampus CA1 (CRF-R1 mediated); test: Extracellular field potentials in hippocampal slices (CA1); type: cell-based, mice
Description: A bipolar stimulating electrode was placed 100-300 μm rostral to the recording electrode and was used to stimulate excitatory afferents at 0.1 Hz.

NMDARs = details: derived from cell lines; Patneau and Mayer 1990; cited from earlier work
CRF-BP = target: T1, CRF-BP (Homo sapiens, UniProt P24387); details: in words; cited from earlier work
T1 sequence (P24387 25-322): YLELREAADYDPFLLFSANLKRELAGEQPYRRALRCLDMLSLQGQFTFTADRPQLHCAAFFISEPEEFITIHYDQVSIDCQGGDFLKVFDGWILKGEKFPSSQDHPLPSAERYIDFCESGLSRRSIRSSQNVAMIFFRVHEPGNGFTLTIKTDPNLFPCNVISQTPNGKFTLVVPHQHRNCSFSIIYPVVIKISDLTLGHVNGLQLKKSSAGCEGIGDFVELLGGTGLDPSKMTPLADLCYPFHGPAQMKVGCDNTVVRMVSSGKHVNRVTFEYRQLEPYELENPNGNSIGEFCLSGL

[3] = tested on: AMPAR-mediated EPSCs in VTA dopamine neurons; test: AMPAR-mediated EPSCs, whole-cell voltage-clamp in VTA slices; type: cell-based, mice; details: CRF 1 μM; voltage-clamp at -70 mV; n=4
Protocol: VTA slices from 21-29 day old C57 mice (Charles River) were prepared as previously described (Ungless et al. (2001). Nature 411: 584-587). Briefly, mice were anesthetized with halothane and then decapitated. A block of tissue containing midbrain was sliced in the horizontal plane (230 μm) in ice-cold low Ca^2+ solution (containing in mM: 126 NaCl, 1.6 KCl, 1.2 NaH2PO4, 1.2 MgCl2, 0.625 CaCl2, 18 NaHCO3 and 11 glucose). Slices were transferred to a holding chamber containing artificial cerebrospinal fluid (ACSF, in mM: 126 NaCl, 1.6 KCl, 1.2 NaH2PO4, 1.2 MgCl2, 2.5 CaCl2, 18 NaHCO3 and 11 glucose) and equilibrated at 31-34° C. for at least 1 h. Picrotoxin (100 μM) was added to the ACSF for recording, to block GABAA receptor-mediated inhibitory postsynaptic potentials. All solutions were aerated with 95% O2/5% CO2, and perfused over the slice at a rate of 2.5 ml/min. […] Extracellular field potentials were recorded in the CA1 region and evoked by stimulating the stratum radiatum. […] AMPAR-mediated EPSCs were recorded at −70 mV; NMDAR-mediated EPSCs were recorded at +40 mV and measured 20 msec after the stimulation artifact when the EPSC is primarily NMDAR-mediated (11,13). Statistical significance was assessed using ANOVA on 5 min bins of EPSCs, and post hoc Fisher's LSD where appropriate. […]

cAMP in Ltk- cells = details: CRF 1 μM; Lovenberg et al. 1995; cited from earlier work
CRF-R1 = target: T2, CRF-R1 (Homo sapiens, UniProt P34998); details: in words; cited from earlier work
T2 sequence (P34998 24-415): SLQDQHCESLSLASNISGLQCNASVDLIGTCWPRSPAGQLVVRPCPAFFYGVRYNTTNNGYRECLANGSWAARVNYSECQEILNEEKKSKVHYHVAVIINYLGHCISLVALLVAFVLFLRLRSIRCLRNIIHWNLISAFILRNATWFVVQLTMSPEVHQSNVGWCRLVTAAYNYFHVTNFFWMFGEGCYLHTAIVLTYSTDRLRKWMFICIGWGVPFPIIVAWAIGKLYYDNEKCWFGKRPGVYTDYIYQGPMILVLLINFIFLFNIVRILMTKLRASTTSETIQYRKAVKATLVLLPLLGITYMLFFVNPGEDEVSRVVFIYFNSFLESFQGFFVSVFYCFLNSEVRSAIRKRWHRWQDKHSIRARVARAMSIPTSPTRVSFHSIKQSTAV

[4] = peptide 1 μM for 8 min, small Ih (non-responding) dopamine neurons
[5] = peptide bath applied 1 μM for 8 min, large Ih (CRF-responding) dopamine neurons

CCCCN(CC)c1nc(C)nc2c1c(C)cn2-c1c(C)cc(C)cc1C [CP-154,526]
block of CRF-induced potentiation of NMDAR-mediated EPSCs ([1]; CP-154,526 3 μM for 15 min, CRF 1 μM, n=6): failed to block; also recorded: does not block | hippocampal field potential vs. baseline with CRF plus antagonist ([2]; CRF 1 μM plus 3 μM CP-154,526, n=5, P>0.05): 82.9±6.9%

Nc1ncnc2c1ncn2[C@@H]1O[C@@H]2CO[P@@](O)(=S)O[C@H]2[C@H]1O [Rp-cAMPs]
block of CRF-induced potentiation of NMDAR-mediated EPSCs ([1]; Rp-cAMPs 100 μM in patch pipette, CRF 1 μM, n=4): still observed a significant potentiation; also recorded: is not blocked

COc1ccc2c(c1)CC[C@@H]1[C@@H]2CC[C@]2(C)[C@@H](NCCCCCCN3C(=O)C=CC3=O)CC[C@@H]12 [U-73122]
block of CRF-induced potentiation of NMDAR-mediated EPSCs ([1]; U-73122 1 μM for 10 min before and during CRF application, n=5): no potentiation | block of CRF-induced potentiation of NMDAR-mediated EPSCs ([1]; U-73122 1 μM for 10 min before and during CRF application, n=5, listed as U73122): is blocked

N[C@@H](CCC(=O)O)C(=O)O [glutamate]
EC50 (NMDARs): ~1 µM

Antisauvagine-30
NMDAR-mediated EPSC size vs. baseline with CRF in presence of antagonist ([1]; Antisauvagine-30 30 nM, CRF 1 μM, 15 mins after CRF onset, n=3, P>0.05): 113.9±17.7% | block of CRF-induced potentiation of NMDAR-mediated EPSCs ([1]; Antisauvagine-30 1M for 15 min (so in the source), CRF 1 μM, n=5): inhibited; also recorded: blocks

CRF fragment (6-33): CRF fragment that competes with CRF at the CRF-BP; CRF-BP inhibitor (ISLDLTFHLLREVLEMARAEQLAQQAHS; Corticoliberin; UniProt P06850 159-186, looked up, fragment)
block of CRF-induced potentiation of NMDAR-mediated EPSCs ([1]; CRF fragment (6-33) 1 μM for 10 min co-applied with CRF, n=5): did not potentiate; also recorded: inhibits | affinity for CRF-BP (CRF-BP): high-affinity binding

CRF: Corticotrophin-releasing factor, a 41 amino acid peptide; human/rat CRF (Tocris) (SEEPPISLDLTFHLLREVLEMARAEQLAQQAHSNRKLMEII)
NMDAR-mediated EPSC size vs. baseline ([1]; CRF 100 nM, 25 mins after CRF onset, n=6, P<0.05): 128.01±15.7% | potentiation of NMDAR-mediated EPSCs [1, 4]: did not observe any effect; also recorded: do not exhibit CRF-induced potentiation | potentiation of NMDAR-mediated EPSCs [1, 5]: large, slowly developing, and transient potentiation; also recorded: exhibit CRF-induced potentiation | potentiation of AMPAR-mediated EPSCs [3]: did not potentiate; also recorded: does not potentiate | hippocampal field potential vs. baseline ([2]; CRF 1 μM, 15 mins after CRF onset, n=4, P<0.05): 143.0±7.7% | activation of cAMP (cAMP in Ltk- cells): maximal activation

Urocortin II: CRF-like peptide binding selectively to CRF-R2 (IVLSLDVPIGLLQILLEQARARAAREQATTNARILARVGHC; ends and bridges not checked; UniProt Q96RP3 72-112, looked up)
potentiation of NMDAR-mediated EPSCs [1, 5]: no potentiation; also recorded: does not potentiate | affinity for CRF-BP (CRF-BP): low affinity | affinity for CRF-R1 (CRF-R1): low affinity

Urocortin: CRF-like peptide, possible endogenous CRF-R2 ligand, also binds CRF-BP (DNPSLSIDLTFHLLRTLLELARTQSQRERAEQNRIIFDSV; ends and bridges not checked; UniProt P55089 83-122, looked up)
potentiation of NMDAR-mediated EPSCs [1, 4]: not | potentiation of NMDAR-mediated EPSCs [1, 5]: potentiation; also recorded: potentiates | affinity for CRF-BP (CRF-BP): higher affinity than CRF | affinity for CRF-R1 (CRF-R1): slightly lower affinity than CRF-R2

ovine CRF: differs from human/rat CRF by 7 amino acids; binds CRF-R2, much lower affinity for CRF-BP
potentiation of NMDAR-mediated EPSCs [1, 5]: no potentiation | potentiation of NMDAR-mediated EPSCs ([1]; peptide bath applied 1 μM for 8 min, large Ih (CRF-responding) dopamine neurons, listed as bovine CRF): does not induce potentiation | affinity for CRF-BP (CRF-BP): much lower affinity
